Literature values, collected in patent US11278511B2, “Sports health performance composition” (REV Pharmaceuticals, Inc., priority 2016, dated 2022).
Read-outs that look alike come from different tables or passages of the source.

Columns and labels:
[1] = tested on: urinary cGMP and nitrate excretion
[2] = IV infusion or oral, doses 6 to 30 gm, humans

N=C(N)NCCC[C@H](N)C(=O)O [L-arginine]
urinary cGMP excretion ([1]; 6 gm IV): significant increases | urinary nitrate excretion ([1]; 6 gm IV): significant increases | urinary cGMP excretion ([1]; 30 gm IV): significant increases | urinary nitrate excretion ([1]; 30 gm IV): significant increases | Cmax (6 gm IV): 822 µM | Cmax (6 gm oral): 310 µM | Cmax (30 gm IV): 6220 µM | Half life (IV): 1 h | Half life (PO): 1.5 h | changes in hemodynamics (humans; 6 gm doses): No significant changes | blood pressure (humans; 30 gm IV): significantly decreased | total peripheral resistance (humans; 30 gm IV): significantly decreased | endothelium-dependent vasodilation (humans; [2]): improved endothelium-dependent vasodilation | muscle blood flow (humans; [2]): improved muscle blood flow | peripheral vasodilation (humans; [2]): induced peripheral vasodilation
